Experimental data from ChEMBL document CHEMBL5465560, “Selectivity Literature for EUbOPEN Chemogenomic Library” (2024).

How the values were obtained:
[1] = molecular target: T1, Serine/threonine-protein kinase Nek1 (Homo sapiens) (UniProt Q96PY6); assay: Selectivity interaction (KinomeScan (DiscoverX)) EUB0001049a NEK1; conditions: at 1 µM
T1 sequence (whole entry): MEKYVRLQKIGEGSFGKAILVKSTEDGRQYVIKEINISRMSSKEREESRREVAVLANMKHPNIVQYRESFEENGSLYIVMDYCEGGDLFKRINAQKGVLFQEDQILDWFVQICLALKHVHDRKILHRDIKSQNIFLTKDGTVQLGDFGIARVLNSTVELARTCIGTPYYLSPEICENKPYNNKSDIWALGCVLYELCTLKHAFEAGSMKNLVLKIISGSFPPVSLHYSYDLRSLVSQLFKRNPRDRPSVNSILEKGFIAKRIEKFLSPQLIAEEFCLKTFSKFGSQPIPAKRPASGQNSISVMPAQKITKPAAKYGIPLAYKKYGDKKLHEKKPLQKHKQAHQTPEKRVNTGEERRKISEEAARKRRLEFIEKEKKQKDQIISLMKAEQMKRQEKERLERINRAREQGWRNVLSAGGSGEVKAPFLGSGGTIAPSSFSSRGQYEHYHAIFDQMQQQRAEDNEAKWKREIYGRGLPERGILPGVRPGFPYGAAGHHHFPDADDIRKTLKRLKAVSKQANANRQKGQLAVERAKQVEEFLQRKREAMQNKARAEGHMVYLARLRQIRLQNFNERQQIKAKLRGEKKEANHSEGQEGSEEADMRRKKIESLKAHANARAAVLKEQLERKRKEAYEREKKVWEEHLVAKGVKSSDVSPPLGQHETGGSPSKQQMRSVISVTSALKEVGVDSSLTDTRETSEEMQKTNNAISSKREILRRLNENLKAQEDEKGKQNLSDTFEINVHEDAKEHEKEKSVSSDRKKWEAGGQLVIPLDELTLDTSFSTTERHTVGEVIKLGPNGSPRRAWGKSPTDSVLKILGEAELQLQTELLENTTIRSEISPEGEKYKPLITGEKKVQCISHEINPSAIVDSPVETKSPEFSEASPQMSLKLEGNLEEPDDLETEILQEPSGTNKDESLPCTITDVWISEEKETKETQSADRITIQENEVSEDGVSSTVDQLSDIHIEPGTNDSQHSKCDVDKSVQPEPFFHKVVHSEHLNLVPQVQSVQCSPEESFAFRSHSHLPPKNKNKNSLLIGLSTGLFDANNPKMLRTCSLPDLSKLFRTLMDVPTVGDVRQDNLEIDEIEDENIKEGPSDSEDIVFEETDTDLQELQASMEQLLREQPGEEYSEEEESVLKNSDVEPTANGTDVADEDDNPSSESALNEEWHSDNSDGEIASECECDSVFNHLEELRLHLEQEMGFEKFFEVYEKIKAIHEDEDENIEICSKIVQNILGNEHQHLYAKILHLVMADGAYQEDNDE

[2] = molecular target: High affinity nerve growth factor receptor (Homo sapiens, UniProt P04629); assay: Selectivity interaction (Kinase panel (literature)) EUB0001199aCl NTRK1; conditions: at 1 µM
Sequence of High affinity nerve growth factor receptor (P04629 33-796 limits assumed): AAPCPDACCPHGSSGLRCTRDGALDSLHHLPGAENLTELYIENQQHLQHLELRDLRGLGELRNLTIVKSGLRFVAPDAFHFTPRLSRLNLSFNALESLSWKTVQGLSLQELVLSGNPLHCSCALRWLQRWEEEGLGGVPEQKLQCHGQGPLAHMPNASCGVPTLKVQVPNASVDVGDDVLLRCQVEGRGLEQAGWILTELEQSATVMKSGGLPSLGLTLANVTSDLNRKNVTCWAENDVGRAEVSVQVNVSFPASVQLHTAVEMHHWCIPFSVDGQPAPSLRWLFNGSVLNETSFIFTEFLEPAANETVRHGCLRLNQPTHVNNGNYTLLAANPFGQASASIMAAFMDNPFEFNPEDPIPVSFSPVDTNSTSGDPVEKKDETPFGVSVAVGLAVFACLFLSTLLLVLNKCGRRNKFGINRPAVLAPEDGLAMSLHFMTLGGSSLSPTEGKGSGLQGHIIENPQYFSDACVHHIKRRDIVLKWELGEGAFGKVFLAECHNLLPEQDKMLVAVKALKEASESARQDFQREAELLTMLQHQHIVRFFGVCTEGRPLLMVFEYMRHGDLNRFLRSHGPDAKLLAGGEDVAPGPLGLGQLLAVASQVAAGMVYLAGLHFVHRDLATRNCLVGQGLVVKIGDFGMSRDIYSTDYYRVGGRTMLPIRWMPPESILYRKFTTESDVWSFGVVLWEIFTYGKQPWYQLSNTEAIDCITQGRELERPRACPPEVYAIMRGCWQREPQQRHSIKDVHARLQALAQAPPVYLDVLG

[3] = molecular target: T2, Peripheral plasma membrane protein CASK (Homo sapiens) (UniProt O14936); assay: Selectivity interaction (KinomeScan (DiscoverX)) EUB0000229b CASK; conditions: at 10 µM
T2 sequence (whole entry): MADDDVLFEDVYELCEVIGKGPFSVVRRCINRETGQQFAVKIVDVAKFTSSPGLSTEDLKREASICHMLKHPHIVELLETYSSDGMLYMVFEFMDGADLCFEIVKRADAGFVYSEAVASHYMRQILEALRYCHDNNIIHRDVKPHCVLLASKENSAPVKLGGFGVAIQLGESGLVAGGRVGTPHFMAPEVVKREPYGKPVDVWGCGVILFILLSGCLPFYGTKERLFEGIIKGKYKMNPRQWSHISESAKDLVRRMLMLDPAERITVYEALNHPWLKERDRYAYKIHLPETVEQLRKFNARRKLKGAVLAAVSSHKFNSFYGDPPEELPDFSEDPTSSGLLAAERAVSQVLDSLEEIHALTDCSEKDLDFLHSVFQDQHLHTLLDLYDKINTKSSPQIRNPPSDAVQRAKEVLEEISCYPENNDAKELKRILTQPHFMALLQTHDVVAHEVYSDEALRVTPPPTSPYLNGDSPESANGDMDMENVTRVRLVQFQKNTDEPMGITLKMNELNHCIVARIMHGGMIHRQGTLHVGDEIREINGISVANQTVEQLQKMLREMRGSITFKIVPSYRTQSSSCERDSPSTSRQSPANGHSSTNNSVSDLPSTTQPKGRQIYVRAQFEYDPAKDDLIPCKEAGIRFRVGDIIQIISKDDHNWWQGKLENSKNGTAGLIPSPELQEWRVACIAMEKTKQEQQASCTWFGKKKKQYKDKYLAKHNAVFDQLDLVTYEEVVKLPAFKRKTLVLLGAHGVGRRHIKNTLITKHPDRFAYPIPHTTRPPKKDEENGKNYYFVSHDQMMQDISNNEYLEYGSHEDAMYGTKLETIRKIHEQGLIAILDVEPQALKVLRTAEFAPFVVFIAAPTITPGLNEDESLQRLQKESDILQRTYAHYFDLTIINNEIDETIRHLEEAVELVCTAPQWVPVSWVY

[4] = molecular target: Serine/threonine-protein kinase 17A (Homo sapiens, UniProt Q9UEE5)
Sequence of Serine/threonine-protein kinase 17A (Q9UEE5 whole entry): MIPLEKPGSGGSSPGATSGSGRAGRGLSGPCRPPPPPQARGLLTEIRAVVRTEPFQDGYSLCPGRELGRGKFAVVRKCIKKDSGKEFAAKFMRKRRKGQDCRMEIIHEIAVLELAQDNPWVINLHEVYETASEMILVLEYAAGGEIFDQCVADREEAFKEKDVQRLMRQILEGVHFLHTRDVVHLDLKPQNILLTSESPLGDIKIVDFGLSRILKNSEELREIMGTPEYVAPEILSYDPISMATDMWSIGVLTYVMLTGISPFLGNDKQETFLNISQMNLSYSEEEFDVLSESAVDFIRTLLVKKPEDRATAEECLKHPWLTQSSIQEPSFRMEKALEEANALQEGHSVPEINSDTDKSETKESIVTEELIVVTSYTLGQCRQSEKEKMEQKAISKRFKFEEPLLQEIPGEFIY

[5] = molecular target: T3, Dual specificity mitogen-activated protein kinase kinase 6 (Homo sapiens) (UniProt P52564); assay: Selectivity interaction (Kinase screening (Upstate/Millipore)) EUB0000604a MAP2K6
T3 sequence (whole entry): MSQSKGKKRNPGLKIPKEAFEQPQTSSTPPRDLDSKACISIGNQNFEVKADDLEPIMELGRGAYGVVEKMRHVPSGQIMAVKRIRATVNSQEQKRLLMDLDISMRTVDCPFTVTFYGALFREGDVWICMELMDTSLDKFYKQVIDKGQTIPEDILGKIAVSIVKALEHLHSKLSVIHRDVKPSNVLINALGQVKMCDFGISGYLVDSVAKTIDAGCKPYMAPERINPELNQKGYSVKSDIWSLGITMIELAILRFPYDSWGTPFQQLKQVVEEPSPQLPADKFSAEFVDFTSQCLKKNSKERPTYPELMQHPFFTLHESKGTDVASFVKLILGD

[6] = molecular target: BDNF/NT-3 growth factors receptor (Homo sapiens) (UniProt Q16620); assay: Selectivity interaction (KinomeScan (DiscoverX)) EUB0000045b NTRK2
Sequence of BDNF/NT-3 growth factors receptor (Homo sapiens) (Q16620 32-822 limits assumed): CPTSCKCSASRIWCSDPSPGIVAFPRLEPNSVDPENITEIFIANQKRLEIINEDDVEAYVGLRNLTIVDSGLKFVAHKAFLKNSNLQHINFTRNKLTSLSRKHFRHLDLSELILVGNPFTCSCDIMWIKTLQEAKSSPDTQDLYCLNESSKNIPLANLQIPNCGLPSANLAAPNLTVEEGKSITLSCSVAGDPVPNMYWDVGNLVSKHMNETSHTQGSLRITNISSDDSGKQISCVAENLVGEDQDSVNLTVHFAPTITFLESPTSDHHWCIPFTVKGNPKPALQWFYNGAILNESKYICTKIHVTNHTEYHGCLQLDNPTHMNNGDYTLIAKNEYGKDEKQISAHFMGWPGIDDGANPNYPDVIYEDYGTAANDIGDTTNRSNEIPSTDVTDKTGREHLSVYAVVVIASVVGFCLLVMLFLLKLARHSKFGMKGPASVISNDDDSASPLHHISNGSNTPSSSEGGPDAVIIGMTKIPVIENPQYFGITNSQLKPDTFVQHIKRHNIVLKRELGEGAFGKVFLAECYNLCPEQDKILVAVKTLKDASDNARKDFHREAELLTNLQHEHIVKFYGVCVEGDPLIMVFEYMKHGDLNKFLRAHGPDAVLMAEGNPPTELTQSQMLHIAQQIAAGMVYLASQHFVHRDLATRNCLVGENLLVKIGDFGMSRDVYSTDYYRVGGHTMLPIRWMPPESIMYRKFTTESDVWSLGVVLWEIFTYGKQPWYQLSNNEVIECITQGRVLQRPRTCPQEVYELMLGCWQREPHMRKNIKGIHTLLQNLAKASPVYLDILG

[7] = molecular target: Tyrosine-protein kinase Fes/Fps (Homo sapiens) (UniProt P07332); assay: Selectivity interaction (ActivX KiNativ screen (ex vivo kinase selectivity in human PBMCs)) EUB0001619a FES; type: cell-based; conditions: PBMC, at 1 µM
Sequence of Tyrosine-protein kinase Fes/Fps (Homo sapiens) (P07332 whole entry): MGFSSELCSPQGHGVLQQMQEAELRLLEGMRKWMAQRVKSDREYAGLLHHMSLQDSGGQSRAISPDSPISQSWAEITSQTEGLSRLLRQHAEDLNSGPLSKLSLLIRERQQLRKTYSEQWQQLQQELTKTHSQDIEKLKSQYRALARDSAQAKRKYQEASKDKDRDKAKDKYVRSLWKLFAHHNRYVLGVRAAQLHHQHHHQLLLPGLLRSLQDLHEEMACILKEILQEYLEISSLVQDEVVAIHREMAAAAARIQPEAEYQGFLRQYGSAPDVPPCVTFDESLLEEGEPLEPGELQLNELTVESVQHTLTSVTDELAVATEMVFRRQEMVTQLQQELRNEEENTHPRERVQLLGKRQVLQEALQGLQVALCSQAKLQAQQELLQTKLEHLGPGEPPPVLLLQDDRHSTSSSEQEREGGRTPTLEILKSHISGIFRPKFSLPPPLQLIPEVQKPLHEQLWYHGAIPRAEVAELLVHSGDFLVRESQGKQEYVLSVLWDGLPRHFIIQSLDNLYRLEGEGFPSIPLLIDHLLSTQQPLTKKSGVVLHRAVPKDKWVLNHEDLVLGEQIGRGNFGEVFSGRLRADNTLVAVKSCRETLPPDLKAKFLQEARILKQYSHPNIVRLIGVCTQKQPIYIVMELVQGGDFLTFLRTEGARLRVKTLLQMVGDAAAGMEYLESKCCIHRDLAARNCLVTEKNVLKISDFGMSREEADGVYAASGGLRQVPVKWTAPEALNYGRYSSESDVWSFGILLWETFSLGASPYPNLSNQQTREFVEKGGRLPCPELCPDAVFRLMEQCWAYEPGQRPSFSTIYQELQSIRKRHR

[8] = molecular target: T2, Peripheral plasma membrane protein CASK (Homo sapiens); assay: Selectivity interaction (LanthaScreen Eu Kinase Binding Assay) EUB0001632a CASK; conditions: at 10 µM
[9] = molecular target: Calcium/calmodulin-dependent protein kinase type 1D (Homo sapiens) (UniProt Q8IU85); assay: Selectivity interaction (ProQinase) EUB0000171b CAMK1D
Sequence of Calcium/calmodulin-dependent protein kinase type 1D (Homo sapiens) (Q8IU85 whole entry, looked up): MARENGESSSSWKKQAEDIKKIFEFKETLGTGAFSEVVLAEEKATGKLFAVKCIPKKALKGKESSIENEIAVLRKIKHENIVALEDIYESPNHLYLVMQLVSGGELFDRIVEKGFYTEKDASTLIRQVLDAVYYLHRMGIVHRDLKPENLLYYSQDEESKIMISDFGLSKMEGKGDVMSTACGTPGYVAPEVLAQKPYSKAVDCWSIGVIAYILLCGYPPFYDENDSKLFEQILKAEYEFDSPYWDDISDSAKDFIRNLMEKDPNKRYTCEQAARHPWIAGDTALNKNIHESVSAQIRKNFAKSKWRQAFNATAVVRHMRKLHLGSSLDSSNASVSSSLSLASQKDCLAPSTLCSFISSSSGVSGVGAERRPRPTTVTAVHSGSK

COc1cc(Nc2nc(C)cc(-c3cnn4nc(OC)ccc34)n2)cc(C(F)(F)F)c1
% of control [1]: 100%

CN1Cc2nccc(-c3cn(C)nc3-c3ccc(F)cc3)c2C1=O
% of inhibition [2]: 12%

COc1cc(N(C)c2ccnc3ccc(C(F)(F)F)cc23)cc(OC)c1OC
% binding [3]: 55%

CN1CCN(C(=O)c2ccc3cc2OCCOCCNc2ccn4ncc-3c4n2)CC1
IC50 [4]: 20 µM

Cc1cnc(Nc2ccc(F)cc2Cl)nc1-c1c[nH]c(C(=O)N[C@H](CO)c2cccc(Cl)c2)c1
% of inhibition [5]: 9%

C=CC(=O)Nc1cc(-n2c(=O)ccc3cnc4ccc(-c5ccc(NS(C)(=O)=O)cc5)cc4c32)ccc1C
% of control ([6]; at 1 µM): 62% | % of control ([6]; at 10 µM): 78%

N#Cc1cccc(-c2c[nH]c3ncnc(N4CCOCC4)c23)c1
% of inhibition [7]: 2%

Cn1cc(-n2cnc3c(NCc4nc5cc(Cl)c(Cl)cc5[nH]4)nc(N4CCOCC4)nc32)cn1
% of inhibition [8]: -92.6%

C=CC(=O)Nc1cccc(C(=O)Nc2ccc(Nc3cc(-c4[nH]c(SC)nc4C)ccn3)cc2)c1
% of control ([9]; at 1 µM): 90% | % of control ([9]; at 5 µM): 75%
